Experimental findings from PMC10439028, “SGLT5 is the renal transporter for 1,5-anhydroglucitol, a major player in two rare forms of neutropenia” (Cellular and Molecular Life Sciences: CMLS, 2023) are described below.

One assay concerns the target T1, hSGLT5 Ala522Val (Homo sapiens, UniProt A0PJK1, A522V).
T1 construct: pUB83-hSGLT5-iso2 as well as the various SGLT5 mutants obtained were used to transduce HEK293T cells; expressed in transfected cells; host or cells: HEK293T, lentiviral transduction (pUB83)
T1 sequence (A0PJK1 1-596 A522V): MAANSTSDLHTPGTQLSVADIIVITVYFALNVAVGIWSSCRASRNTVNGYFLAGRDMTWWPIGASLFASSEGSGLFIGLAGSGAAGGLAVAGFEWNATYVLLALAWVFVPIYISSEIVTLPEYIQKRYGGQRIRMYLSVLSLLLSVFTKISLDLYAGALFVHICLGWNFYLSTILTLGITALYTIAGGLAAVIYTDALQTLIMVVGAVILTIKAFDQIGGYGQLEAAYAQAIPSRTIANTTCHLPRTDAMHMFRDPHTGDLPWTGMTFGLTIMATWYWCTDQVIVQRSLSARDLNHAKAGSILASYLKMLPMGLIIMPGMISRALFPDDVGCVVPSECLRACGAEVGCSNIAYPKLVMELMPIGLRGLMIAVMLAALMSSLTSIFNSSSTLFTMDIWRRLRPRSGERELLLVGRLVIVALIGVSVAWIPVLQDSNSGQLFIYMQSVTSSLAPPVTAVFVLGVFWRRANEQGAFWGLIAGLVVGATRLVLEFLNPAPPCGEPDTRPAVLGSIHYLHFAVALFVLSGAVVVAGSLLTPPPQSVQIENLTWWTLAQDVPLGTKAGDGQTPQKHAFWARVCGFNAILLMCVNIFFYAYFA
Kind of assay: 1,5-AG uptake in HEK293T cells overexpressing SGLT5 variant Ala522Val. The assay is classed as cell-based. How it is done: For a typical transporter experiment we proceeded as follows. […] To minimize cell loss during the various washing steps in the radioactive uptake experiments, the wells where the cells were seeded were previously coated with poly- D-lysine, which improved their adhesion to the plastic surface of the wells. For this, each well of the 24-well plates was treated with 200 µl of a 0.01% poly-L-lysine solution for 10 min, washed 3 times with 1 ml of sterilized water and left to dry for 2 h. Only then could the 24-well plates be seeded with the appropriate cell lines and cultured overnight at 37 °C in 5% CO2.
On day two, the radioactive uptake assay could be performed. The cell culture media was removed by aspiration and cells were incubated for 20 min at 37 °C and 5% CO2 with a basal medium (10 mM HEPES, pH 7.4, 1 mM CaCl2, 1 mM MgCl2, 2 mM KCl) containing 140 mM choline chloride to deplete intracellular Na^2+ ions. […]
Once the uptake medium was added to the cells, the plates were incubated at 37 °C in 5% CO2 during the required time. […] In each experiment, the transport activities were calculated after subtracting a “blank” value, corresponding to the radioactivity in the appropriate control cells (HEK293T cells that were stably or transiently transfected with one of the parent plasmids pEF6/MycHisA, pEF6HisB, pUB82 or pUB83 with no inserted cDNA) that were analyzed in parallel. […]

Assay [1] has as its target T2, SGLT5-TM (S70N–E71I–L75H) (Homo sapiens, UniProt A0PJK1, E71I/L75H/S70N).
T2 construct: pUB83-hSGLT5-iso2 as well as the various SGLT5 mutants obtained were used to transduce HEK293T cells; expressed in transfected cells; host or cells: HEK293T, lentiviral transduction (pUB83)
As to the kind of experiment: Inhibition of 10 µM 1,5-AG transport by triple mutant SGLT5-TM (S70N-E71I-L75H). It counts as cell-based. How it is done:
The transport experiments to study the specificity of SGLT4 or SGLT5, were performed in the presence of 10 µM U-[^14C + ^12C]-mannose (for SGLT4) or 2-[^3H + ^1H]-1,5-AG (for SGLT5) and increasing concentrations of various sugars tested. The transport experiments to study the inhibition of empagliflozin, dapagliflozin or remogliflozin, on the transport of 1,5-AG by SGLT5 or its variants were performed in the presence of 10 µM 2-[^3H + ^1H]-1,5-AG and increasing concentrations of the various gliflozins tested.
SGLT5 mutants were created using the quick-change site directed mutagenesis method that enables effective mutagenesis without subcloning of the amplified PCR products. Complementary primer pairs carrying the desired replacements (Supplementary Table 3) were designed using an online tool (https://www.agilent.com/store/primerDesignProgram.jsp). The PCR protocol was carried out following the manufacturer instructions regarding the KOD HOT Start polymerase kit (TOYOBO™, Novagen). The amplified DNA was cleaned-up from the reactions constituents using the GeneJET PCR purification Kit (Thermo Scientific™) and the size of the DNA fragment were verified by DNA agarose-gel electrophoresis. After eliminating the parental DNA by digesting the purified DNA with the DpnI restriction enzyme, the DNA fragments containing the appropriate changes were transformed in E. coli NEB Turbo competent cells (C2984H). Once colonies were obtained, plasmid DNA was finally amplified, purified and sequenced to verify that the required changes had been introduced and eliminate any PCR errors. Next, pUB83-hSGLT5-iso2 as well as the various SGLT5 mutants obtained were used to transduce HEK293T cells using the exact same protocol as described above to create model cell lines overexpressing the different SGLT5 transporters.
Supplementary Fig. 7: Substrate specificity of SGLT5 - impact of replacing specific and conserved substrate binding residues in human SGLT5 by the equivalent ones in […]
When shown, the IC50 values are derived from inhibition curves showing the transport activity of 1,5-AG by the indicated SGLT5 mutants. Values show the concentration needed of the various sugars to inhibit by 50% the transport activity of 10 µM 2-[1H+3H]-1,5-AG. When the inhibition was too weak to derive IC50 values, the inhibition of the transport of 1,5-AG with the indicated concentration of the inhibitor-sugar is shown. Of note, despite having a lower […]
µM). These apparently contradictory changes are not necessarily surprising: in the case of enzymes, there are multiple examples of mutations that, at the same time, increase the apparent affinity (decrease the Km) of an enzyme for its substrate while decreasing the Vmax.
Measurement of transport activities and the description of the structures of the various inhibitory sugars used are as in Fig. 3C. Data corresponds to n = 3 in at least 2 independent […]
(1 picture or pasted object on this page, not shown here)

T2 sequence (A0PJK1 whole entry S70N/E71I/L75H): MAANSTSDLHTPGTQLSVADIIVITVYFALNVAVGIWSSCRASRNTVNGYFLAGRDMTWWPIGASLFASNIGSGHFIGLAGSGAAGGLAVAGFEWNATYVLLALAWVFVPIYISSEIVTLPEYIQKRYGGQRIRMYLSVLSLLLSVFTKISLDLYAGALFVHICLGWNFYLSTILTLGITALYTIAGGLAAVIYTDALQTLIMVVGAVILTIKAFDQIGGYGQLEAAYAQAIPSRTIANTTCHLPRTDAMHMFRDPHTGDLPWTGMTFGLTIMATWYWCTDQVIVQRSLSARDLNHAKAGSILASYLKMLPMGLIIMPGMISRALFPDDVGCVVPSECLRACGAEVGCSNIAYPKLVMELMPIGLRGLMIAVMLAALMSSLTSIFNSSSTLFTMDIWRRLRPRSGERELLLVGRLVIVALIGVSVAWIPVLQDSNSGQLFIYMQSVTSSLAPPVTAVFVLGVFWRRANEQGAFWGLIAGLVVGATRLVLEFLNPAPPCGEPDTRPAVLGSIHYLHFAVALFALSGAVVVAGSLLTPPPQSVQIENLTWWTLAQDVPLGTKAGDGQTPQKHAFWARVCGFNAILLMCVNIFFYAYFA

Regarding `OC[C@H]1OC[C@H](O)[C@@H](O)[C@@H]1O` [1,5-AG, 1,5-anhydroglucitol], the Vmax on hSGLT5 Ala522Val (variant Ala522Val) is recorded as 18.3 ± 0.5 pmol/min/10^5cells. Besides, the “effect of mutation on ability of SGLT5 to transport 1,5-AG” value at hSGLT5 Ala522Val (variant Ala522Val (control)) is recorded as “no effect”. Besides, in assay [1] (33 µM versus 162 µM), the “IC50 for 1,5-AG lower than the IC50 for SGLT5-WT” value is reported as 5 fold. In addition, the “inhibition of SGLT5-TM” value in assay [1] (competition experiments, Supplementary Fig. 7) is recorded as “still being inhibited”.

On to `OC[C@H]1OC(O)[C@@H](O)[C@@H](O)[C@@H]1O` (some centres unmarked) [Mannose, mannose], for which the “loss of affinity of SGLT5-TM” value in assay [1] (versus wild-type SGLT5, competition experiments, Supplementary Fig. 7) is “tenfold”.
